Experimental data as given in patent US12559750B2, “Methods and compositions for treatment of polycystic kidney disease” (Regulus Therapeutics Inc., priority 2021, dated 2026).

Legend:
miR-17 [1] = assay: miR-17 PD-Sig in mouse kidney cell lines; type: cell-based
Method: The activity of certain compounds was evaluated using a mouse miR-17 Pharmacodynamic-Signature (miR-17 PD-Sig), which consists of the expression of 18 unique miR-17 target genes normalized by six reference housekeeping genes, to provide an unbiased and comprehensive assessment of miR-17 activity. The mouse miR-17 PD-Sig score was the calculated average of the 18 genes' individual log 2 fold changes (normalized by six housekeeping genes) compared to mock transfection (Lee et al., Nat. Commun., 2019, 10, 4148).
The PD-Sig for RGLS4326 in mIMCD3 cells (77.2, indicated by “*”) was not generated in this experiment; the value in Table 14 is that reported by Lee et al., Nat. Commun., 2019, 10, 4148. Blank cells in the table indicate that a compound was not tested in a particular cell line.

[2] = test system: KspCre/Pkd1F/RC (Pkd1-F/RC) mice; assay: Efficacy in Pkd1-F/RC mouse model of ADPKD; type: in vivo; conditions: 20 mg/kg SC on days 8, 10, 12, 15 of age; for Mean BW/KW Ratio / Mean Serum BUN / Mean Serum Creatine: sacrificed at 18 days
Method: Mice were sacrificed at 18 days of age, and kidney weight, body weight, cyst index, serum creatinine level, and blood urea nitrogen (BUN) level were measured. BUN level is a marker of kidney function. A higher BUN level correlates with poorer kidney function, thus a reduction in BUN level is an indicator of reduced kidney injury and damage and improved function. Statistical significance was calculated by one-way ANOVA with Dunnett's multiple correction.

AMPA-R = assay: [3H]AMPA radioligand binding assay on rat brain synaptic membranes; conditions: for % Inhibition @ Concentration 100 uM: Table 8 (3′-terminal nucleobase/sugar variants); for % Inhibition @ Concentration 0.1 uM: Table 8, 0.1 uM; for % Inhibition @ Concentration 1 uM: Table 8, 1 uM; for % Inhibition @ Concentration 10 uM: Table 8, 10 uM;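 for all read-outs here: competition binding in which test compounds at rising concentrations displace [3H]AMPA from AMPA-R on rat brain synaptic membranes, with reduced bound radioligand as read-out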
mice = assay: High-dose subcutaneous mouse toxicity studies, CNS-related findings; conditions: for CNS toxicity in high-dose mouse toxicity studies: single 2000 mg/kg and/or escalating doses 100, 450, 2000 mg/kg, in words
Method: Each compound was tested in a single dose at 2000 mg/kg, and at escalating doses (100, 450, and 2000 mg/kg).

AMPA-R (GluA1/GluA4) = target: T1, AMPA-R (GluA1/GluA4) (Homo sapiens, UniProt P42261+P48058); assay: Manual whole-cell patch clamp, ChanTest GluA1/GluA4 EZCells; type: cell-based
T1 construct: host or cells: ChanTest GluA1/GluA4 EZCells
T1 sequence (P42261 19-906): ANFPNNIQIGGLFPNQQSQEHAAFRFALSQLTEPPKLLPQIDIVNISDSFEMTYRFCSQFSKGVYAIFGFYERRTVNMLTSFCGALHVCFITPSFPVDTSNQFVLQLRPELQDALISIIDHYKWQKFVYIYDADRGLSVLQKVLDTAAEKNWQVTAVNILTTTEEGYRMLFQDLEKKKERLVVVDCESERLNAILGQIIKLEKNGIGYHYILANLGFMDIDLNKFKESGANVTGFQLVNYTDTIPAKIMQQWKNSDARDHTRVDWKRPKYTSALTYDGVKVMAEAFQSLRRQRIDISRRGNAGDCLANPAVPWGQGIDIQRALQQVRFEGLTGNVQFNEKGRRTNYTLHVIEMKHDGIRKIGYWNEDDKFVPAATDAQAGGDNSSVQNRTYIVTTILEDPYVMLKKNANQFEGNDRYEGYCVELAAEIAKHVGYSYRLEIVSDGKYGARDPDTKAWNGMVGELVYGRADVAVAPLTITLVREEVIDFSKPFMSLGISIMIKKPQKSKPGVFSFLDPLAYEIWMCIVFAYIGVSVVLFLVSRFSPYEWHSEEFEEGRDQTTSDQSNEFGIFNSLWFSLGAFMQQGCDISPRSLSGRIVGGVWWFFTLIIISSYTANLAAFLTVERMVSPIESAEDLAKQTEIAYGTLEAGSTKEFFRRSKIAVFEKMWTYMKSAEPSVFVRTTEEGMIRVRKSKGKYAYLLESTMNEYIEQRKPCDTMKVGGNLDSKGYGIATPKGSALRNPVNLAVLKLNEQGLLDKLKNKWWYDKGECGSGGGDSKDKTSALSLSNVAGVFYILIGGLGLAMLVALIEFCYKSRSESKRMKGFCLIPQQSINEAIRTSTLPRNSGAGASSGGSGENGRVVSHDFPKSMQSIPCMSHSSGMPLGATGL
T1 sequence (P48058 21-902): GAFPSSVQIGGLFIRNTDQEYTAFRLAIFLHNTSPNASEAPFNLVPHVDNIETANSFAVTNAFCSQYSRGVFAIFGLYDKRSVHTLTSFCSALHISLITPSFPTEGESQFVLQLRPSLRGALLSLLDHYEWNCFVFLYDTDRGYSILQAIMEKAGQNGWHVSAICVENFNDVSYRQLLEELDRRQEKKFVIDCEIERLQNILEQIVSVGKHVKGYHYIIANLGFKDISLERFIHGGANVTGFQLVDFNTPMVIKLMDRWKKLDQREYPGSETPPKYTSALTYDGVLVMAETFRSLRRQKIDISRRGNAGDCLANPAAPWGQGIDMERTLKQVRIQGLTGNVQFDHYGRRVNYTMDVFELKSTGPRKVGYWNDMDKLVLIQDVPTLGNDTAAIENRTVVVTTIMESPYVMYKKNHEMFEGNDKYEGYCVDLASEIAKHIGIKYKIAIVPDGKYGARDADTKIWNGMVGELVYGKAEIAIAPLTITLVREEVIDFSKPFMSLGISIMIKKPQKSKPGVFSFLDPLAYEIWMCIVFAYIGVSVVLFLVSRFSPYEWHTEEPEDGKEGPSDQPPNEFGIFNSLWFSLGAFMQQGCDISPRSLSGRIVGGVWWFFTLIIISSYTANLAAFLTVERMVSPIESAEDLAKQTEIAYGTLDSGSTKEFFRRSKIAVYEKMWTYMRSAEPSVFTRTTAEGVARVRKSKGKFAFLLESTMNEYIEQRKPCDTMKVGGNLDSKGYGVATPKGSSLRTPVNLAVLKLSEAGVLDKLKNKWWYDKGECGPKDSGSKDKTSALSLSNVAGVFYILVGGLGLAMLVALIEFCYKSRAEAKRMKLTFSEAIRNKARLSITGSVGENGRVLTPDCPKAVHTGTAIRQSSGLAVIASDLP
Method: To evaluate functional antagonism of anti-miR-17 oligonucleotides towards the AMPA-R, certain oligonucleotides were tested using the manual whole-cell patch clamp technique, which records membrane currents as a measure of AMPA-R activity.
Manual whole-cell patch clamp studies were performed by Metrion Biosciences (Cambridge, UK). Whole-cell voltage clamp experiments were performed at room temperature (18-21° C.) using an EPC10 patch clamp amplifier using Patchmaster software (HEKA Elektronik). Glass patch pipettes were fabricated from borosilicate glass capillaries (Harvard Apparatus) to resistances between 1.4 and 2.5 MΩ. Membrane currents were recorded using the whole-cell patch clamp technique. ChanTest® GluA1/GluA4 EZCells were clamped at a holding potential of −80 mV and membrane currents elicited by 10 μM(S)-AMPA delivered using a VC38 perfusion system (ALA Scientific Instruments). The […] current amplitude values were measured with each application of 10 μM(S)-AMPA. The fractional change of current amplitude produced by each concentration of compound was calculated relative to the control current (pre-compound) and expressed as percentage change (% inhibition) for each cell. RGLS4326 was tested in a separate study from all other compounds in Table 6.

miR-17 [3] = assay: microRNA polysome shift assay (miPSA) in kidney of wild type mice; type: in vivo, mouse; parameters: scale not given here; conditions: seven days later
Method: In vivo potency was evaluated using the microRNA polysome shift assay (miPSA). This assay was used to determine the extent to which compounds directly engage the miR-17 target in the kidney in normal and PKD mice. The miPSA relies on the principle that active miRNAs bind to their mRNA targets in translationally active high molecular weight (HMW) polysomes, whereas the inhibited miRNAs reside in the low MW (LMW) polysomes. Treatment with anti-miR results in a shift of the microRNA from HMW polysomes to LMW polysomes. Thus, the miPSA provides a direct measurement of microRNA target engagement by a complementary anti-miR (Androsavich et al., Nucleic Acids Research, 2015, 44: e13).
Wild type mice were administered a single dose of 0.3 mg/kg, 3 mg/kg, or 30 mg/kg. Kidney tissue was collected seven days later and subjected to the miPSA. The mean displacement score for each treatment is shown in Table 15 (PBS, n=17; RGLS4326 30 mg/kg, n=10; all other treatments, n=4-5). The tested oligonucleotides displaced miR-17 from translationally active polysome (as measured by miPSA) in normal mouse kidneys.

miR-17 [4] = assay: miR-17 luciferase sensor assay in HeLa cells; type: cell-based; conditions: for EC50: HeLa cells, 18- to 24-hour transfection
Method: The in vitro potency of certain compounds was evaluated using a miR-17 luciferase sensor assay which uses a luciferase reporter vector for miR-17, with two fully complementary miR-17 binding sites in tandem in the 3′-UTR of the luciferase gene. HeLa cells were co-transfected with the luciferase reporter vector and an exogenous miR-17-expression vector that acted to repress the luciferase signal.

miR-17 [5] = assay: miR-17 PD-Sig in human kidney cell lines; type: cell-based

Sequence	EC50 (miR-17 [1]; D52B5, mouse, PKD)	BW/KW Ratio, Mean Difference vs. PBS [2]	Serum BUN, Mean Difference vs. PBS [2]	Serum Creatine, Mean Difference vs. PBS [2]	Mean BW/KW Ratio [2]	Mean Serum BUN [2]	Mean Serum Creatine [2]	IC50 (AMPA-R; Experiment #2)	% Inhibition @ 0.1 uM (AMPA-R; Experiment #2, 0.1 uM)	% Inhibition @ 1 uM (AMPA-R; Experiment #2, 1 uM)	% Inhibition @ 10 uM (AMPA-R; Experiment #2, 10 uM)	% Inhibition @ 100 uM (AMPA-R; Experiment #2, 100 uM)	IC50 (AMPA-R; Table 8)	% Inhibition @ Concentration 100 uM (AMPA-R)	% Inhibition @ Concentration 0.1 uM (AMPA-R)	% Inhibition @ Concentration 1 uM (AMPA-R)	% Inhibition @ Concentration 10 uM (AMPA-R)	CNS toxicity in high-dose mouse toxicity studies (mice)	% Inhibition on membrane currents evoked with 10 uM (s)-AMPA (Mean ± SD) (AMPA-R (GluA1/GluA4); 0.3 uM compound)	% Inhibition on membrane currents evoked with 10 uM (s)-AMPA (Mean ± SD) (AMPA-R (GluA1/GluA4); 3 uM compound)	also measured
ASGSCMAFCFUFUMUSGS [RGLS4326, reference compound]	92.8 nM	−48.8	−20.06	−0.03463	16.81	22.41	0.1273	270 nM	31.5%	73.1%	93.6%	96.8%	1610 nM	99.7%	−0.1%	40.8%	83.5%	ataxia, lethargy, and in the case of RGLS4326, unconsciousness at the highest dose	46.9 ± 9.8%	87.4 ± 7.9%	IC50 (AMPA-R; Experiment #1): 700 nM; % Inhibition @ 0.1 uM (AMPA-R; Experiment #1, 0.1 uM): 17.6%; % Inhibition @ 1 uM (AMPA-R; Experiment #1, 1 uM): 55.5%; % Inhibition @ 10 uM (AMPA-R; Experiment #1, 10 uM): 93%; % Inhibition @ 100 uM (AMPA-R; Experiment #1, 100 uM): 104.1%; IC50 (AMPA-R; Experiment #3): 780 nM; % Inhibition @ 0.1 uM (AMPA-R; Experiment #3, 0.1 uM): 14.6%; % Inhibition @ 1 uM (AMPA-R; Experiment #3, 1 uM): 55.8%; % Inhibition @ 10 uM (AMPA-R; Experiment #3, 10 uM): 89%; % Inhibition @ 100 uM (AMPA-R; Experiment #3, 100 uM): 97.2%; miPSA Displacement Score, Mean (miR-17 [3]; single dose 3 mg/kg): 2.247; miPSA Displacement Score, Mean (miR-17 [3]; single dose 30 mg/kg): 2.362; miPSA Displacement Score, Mean (miR-17 [3]; single dose 0.3 m/kg): 1.846; Log2FC (37.5 nM) (miR-17 [4]): 2.70; EC50 (miR-17 [4]): 18.5 nM; EC50 (miR-17 [5]; HK-2, human, Normal): 47.8 nM; EC50 (miR-17 [5]; WT9-7, human, PKD): 17.3 nM
ASGSCMAFCFUFUMUSAS [RG-NG-1015]	82.4 nM	−48.79	−20.21	−0.034	16.83	22.26	0.1279	> 100000 nM	2.3%	11%	6.5%	19.9%	≥ 100000 nM	5.6%	−0.8%	−10.3%	−7%	no CNS-toxicity were observed	16.0 ± 5.0%	39.5 ± 5.4%	EC50 (miR-17 [1]; mIMCD3, mouse, Normal): 168 nM; CNS-related findings noted (mice; SC 2000 mg/kg, Single): No; CNS-related findings noted (mice; SC 100, 450, 2000 mg/kg/dose, QDx4): No; functional antagonism towards AMPA-R relative to RGLS4326 (AMPA-R (GluA1/GluA4); in words): reduced functional antagonism towards AMPA-R; miPSA Displacement Score, Mean (miR-17 [3]; single dose 3 mg/kg): 2.562; miPSA Displacement Score, Mean (miR-17 [3]; single dose 30 mg/kg): 2.718; miPSA Displacement Score, Mean (miR-17 [3]; single dose 0.3 m/kg): 2.238; Log2FC (37.5 nM) (miR-17 [4]): 2.51; EC50 (miR-17 [4]): 22.4 nM; EC50 (miR-17 [5]; HK-2, human, Normal): 55.6 nM; EC50 (miR-17 [5]; WT9-7, human, PKD): 21.2 nM
